The target of one test is F508del V470 CFTR (Homo sapiens, UniProt P13569, DEL508-508). The test is described as follows: FRT Ion Flux Assay of F508del CFTR Potentiation. Type of test: cell-based. Particulars: FRT cells expressing F508del V470 CFTR and halide-sensitive YFP, forskolin 20 uM, 30 min. On the procedure:
FRT Ion Flux Assay of F508del CFTR Potentiation
Fischer rat thyroid (FRT) cell lines stably expressing recombinant F508del V470 CFTR and halide-sensitive yellow fluorescent protein (Pedemonte et al., J. Clin. Invest. 115(9) 2564-71 (2005)) were seeded at 25,000 cells/well in 50 uL/well of culture medium into black-walled, clear bottom tissue-culture-treated 384-well plates (Corning, cat. no. 3712). After one day, the cells were pre-incubated at 27° C./5% CO2 for 16-24 hours. The cells were then washed with dPBS and treated with forskolin (20 uM) and test compound for 30 min by addition of 20 uL of compound dilution buffer (dPBS containing forskolin and test compound). Plates were loaded into FLIPR384 fluorescence imaging plate reader (Molecular Devices). After an initial fluorescence reading, iodide buffer (25 uL) (composition (in mM): 137 NaI, 1.5 K2PO4, 8.1 NaH2PO4, 2.7 KCl, 0.5 MgCl2, 1 CaCl2) was added and a second fluorescence reading was made after approximately 21 seconds. Data treatment involved division of the second fluorescence reading by the initial fluorescence reading, then scaling of the resulting normalized endpoint fluorescence with respect to the responses for DMSO (0%) and a positive control potentiator (100%).

The target in a further test is CFTR (Homo sapiens, UniProt P13569). The test is described as follows: Ussing Chamber Electrophysiology Assay of CFTR Potentiation in CF Bronchial Epithelial Cells. The class given is cell-based. Particulars: primary CF hBE cells, short-circuit current, scaled to DMSO (0%) and positive control potentiator (100%). An excerpt:
Ussing Chamber Electrophysiology Assay of CFTR Potentiation in CF Bronchial Epithelial Cells
Primary cystic fibrosis human bronchial epithelial (CF hBE) cells were expanded and cultured according to published methods (Neuberger et al., Ch. 4 of Cystic Fibrosis, Methods in Molecular Biology vol. 741, pp. 39-54 (2011)). Well-differentiated cells (>30 days at air/liquid interface) on Snapwell filters (Corning Costar, cat. no. 3801) were mounted in Ussing chambers (Physiologic Instruments, Inc., San Diego, Calif.). F508del/F508del cultures were assayed at 27° C. and G551D/F508del cells were assayed at 35° C. HEPES buffered physiological saline (composition (in mM): 137 NaCl, 4 KCl, 1 MgCl2, 1.8 CaCl2, 10 HEPES Na) was used in both apical and basolateral chambers. Chambers were bubbled with air to promote mixing and the voltage was clamped to zero. Amiloride (30 uM), forskolin (10 uM), test compound (4 increasing concentrations), and CFTRinh-172 (20 uM) were added sequentially with 20-25 minutes between additions. Short-circuit currents were acquired and analyzed using LabScribe2. Test compound responses were scaled relative to responses for DMSO (0%) and the maximal response of a positive control potentiator (100%).

pEC50: −log10 of the molar value.

Chain of F508del V470 CFTR (P13569 with tags, fused parts or gaps DEL508-508): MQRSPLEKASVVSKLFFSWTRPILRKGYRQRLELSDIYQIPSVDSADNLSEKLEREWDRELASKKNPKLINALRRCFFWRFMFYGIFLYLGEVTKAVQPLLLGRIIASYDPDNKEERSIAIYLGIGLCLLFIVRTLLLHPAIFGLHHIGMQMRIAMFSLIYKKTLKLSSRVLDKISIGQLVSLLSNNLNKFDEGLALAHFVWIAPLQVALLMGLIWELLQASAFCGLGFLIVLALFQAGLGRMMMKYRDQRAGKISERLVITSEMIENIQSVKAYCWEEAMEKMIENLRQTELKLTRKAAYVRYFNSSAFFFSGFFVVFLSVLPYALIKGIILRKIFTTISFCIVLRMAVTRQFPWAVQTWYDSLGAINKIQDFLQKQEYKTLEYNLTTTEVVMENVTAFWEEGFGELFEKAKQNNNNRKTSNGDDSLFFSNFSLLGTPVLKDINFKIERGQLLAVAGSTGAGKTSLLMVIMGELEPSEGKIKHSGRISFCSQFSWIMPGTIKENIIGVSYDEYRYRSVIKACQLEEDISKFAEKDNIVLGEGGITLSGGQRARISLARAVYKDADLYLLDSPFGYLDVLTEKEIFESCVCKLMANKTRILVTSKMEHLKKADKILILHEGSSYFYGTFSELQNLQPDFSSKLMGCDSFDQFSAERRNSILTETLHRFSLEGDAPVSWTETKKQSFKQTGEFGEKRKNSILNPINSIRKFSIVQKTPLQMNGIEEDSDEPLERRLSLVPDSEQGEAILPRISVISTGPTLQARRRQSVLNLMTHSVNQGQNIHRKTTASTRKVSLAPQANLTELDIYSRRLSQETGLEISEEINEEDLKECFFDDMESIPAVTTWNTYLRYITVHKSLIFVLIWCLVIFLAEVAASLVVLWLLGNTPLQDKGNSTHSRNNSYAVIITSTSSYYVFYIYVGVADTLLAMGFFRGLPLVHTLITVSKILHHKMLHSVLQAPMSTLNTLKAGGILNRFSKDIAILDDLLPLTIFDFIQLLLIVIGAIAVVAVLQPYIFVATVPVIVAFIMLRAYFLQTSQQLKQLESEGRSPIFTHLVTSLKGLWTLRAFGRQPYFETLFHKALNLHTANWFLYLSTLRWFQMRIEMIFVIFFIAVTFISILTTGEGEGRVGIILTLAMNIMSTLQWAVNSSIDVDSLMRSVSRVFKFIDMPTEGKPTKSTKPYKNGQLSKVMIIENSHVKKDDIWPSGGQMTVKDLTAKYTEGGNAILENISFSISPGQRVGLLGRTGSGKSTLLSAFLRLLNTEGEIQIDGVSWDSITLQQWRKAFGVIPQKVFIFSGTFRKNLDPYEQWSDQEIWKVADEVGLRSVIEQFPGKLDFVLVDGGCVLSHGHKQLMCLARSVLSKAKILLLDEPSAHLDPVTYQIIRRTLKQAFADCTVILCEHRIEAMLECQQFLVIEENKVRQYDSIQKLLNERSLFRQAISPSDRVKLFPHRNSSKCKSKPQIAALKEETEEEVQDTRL

On to `CC(c1cn(-c2ccccc2F)nn1)c1c(C#N)c(-c2cnc(C(F)(F)F)nc2)c2c(N)ncnn12` (single isomer, unassigned) [Example 1, 4-amino-7-{1-[1-(2-fluorophenyl)-1H-1,2,3-triazol-4-yl]ethyl}-5-[2-(trifluoromethyl)pyrimidin-5-yl]pyrrolo[2,1-f][1,2,4]triazine-6-carbonitrile], for which the pEC50 – broadly, −log10 of the EC50, conventionally taken in molar units – at F508del V470 CFTR is 7.33; on CFTR, 7.29.
In the same order, the values of `CC(c1cn(-c2ccccc2F)nn1)c1c(C#N)c(-c2cnc(C(F)(F)F)nc2)c2c(N)ncnn12` (single isomer, unassigned) [Example 2, 4-amino-7-{1-[1-(2-fluorophenyl)-1H-1,2,3-triazol-4-yl]ethyl}-5-[2-(trifluoromethyl)pyrimidin-5-yl]pyrrolo[2,1-f][1,2,4]triazine-6-carbonitrile] are 8.04 and 7.95.
The matching figures for `CC(c1cn(-c2ccc(F)cc2F)nn1)c1c(C#N)c(-c2cnc(C(F)(F)F)nc2)c2c(N)ncnn12` (single isomer, unassigned) [Example 3, 4-amino-7-{1-[1-(2,4-difluorophenyl)-1H-1,2,3-triazol-4-yl]ethyl}-5-[2-(trifluoromethyl)pyrimidin-5-yl]pyrrolo[2,1-f][1,2,4]triazine-6-carbonitrile]: 7.97 and 7.84.
Consider `CCC(c1cn(-c2ccccc2F)nn1)c1c(C#N)c(-c2cnc(C(F)(F)F)nc2)c2c(N)ncnn12` (single isomer, unassigned) [Example 4, 4-amino-7-{1-[1-(2-fluorophenyl)-1H-1,2,3-triazol-4-yl]propyl}-5-[2-(trifluoromethyl)pyrimidin-5-yl]pyrrolo[2,1-f][1,2,4]triazine-6-carbonitrile], for which the figures for the pEC50 on F508del V470 CFTR and on CFTR were 7.45 and 7.69, respectively.
Turning to `CCC(c1cn(-c2ccccc2F)nn1)c1c(C#N)c(-c2cnc(C(F)(F)F)nc2)c2c(N)ncnn12` (single isomer, unassigned) [Example 5, 4-amino-7-{1-[1-(2-fluorophenyl)-1H-1,2,3-triazol-4-yl]propyl}-5-[2-(trifluoromethyl)pyrimidin-5-yl]pyrrolo[2,1-f][1,2,4]triazine-6-carbonitrile], the pEC50 at F508del V470 CFTR was 8.67; at CFTR it was 8.52.
As to `CCC(c1cn(-c2ccc(F)cc2F)nn1)c1c(C#N)c(-c2cnc(C(F)(F)F)nc2)c2c(N)ncnn12` (single isomer, unassigned) [Example 6, 4-amino-7-{1-[1-(2,4-difluorophenyl)-1H-1,2,3-triazol-4-yl]propyl}-5-[2-(trifluoromethyl)pyrimidin-5-yl]pyrrolo[2,1-f][1,2,4]triazine-6-carbonitrile], the pEC50 at F508del V470 CFTR was 8.30; on CFTR it was 8.26.
The matching figures for `CCC(c1cn(-c2ccc(F)cc2F)nn1)c1c(C#N)c(-c2cnc(C(F)(F)F)nc2)c2c(N)ncnn12` (single isomer, unassigned) [Example 7, 4-amino-7-{1-[1-(2,4-difluorophenyl)-1H-1,2,3-triazol-4-yl]propyl}-5-[2-(trifluoromethyl)pyrimidin-5-yl]pyrrolo[2,1-f][1,2,4]triazine-6-carbonitrile]: 7.35 and 7.48.
The matching figures for `CCC(c1cn(-c2cc(F)ccc2F)nn1)c1c(C#N)c(-c2cnc(C(F)(F)F)nc2)c2c(N)ncnn12` (single isomer, unassigned) [Example 8, 4-amino-7-{1-[1-(2,5-difluorophenyl)-1H-1,2,3-triazol-4-yl]propyl}-5-[2-(trifluoromethyl)pyrimidin-5-yl]pyrrolo[2,1-f][1,2,4]triazine-6-carbonitrile]: 7.76 and 7.89.
With `CCC(c1cn(-c2ccc(F)c(F)c2)nn1)c1c(C#N)c(-c2cnc(C(F)(F)F)nc2)c2c(N)ncnn12` (single isomer, unassigned) [Example 9, 4-amino-7-{1-[1-(3,4-difluorophenyl)-1H-1,2,3-triazol-4-yl]propyl}-5-[2-(trifluoromethyl)pyrimidin-5-yl]pyrrolo[2,1-f][1,2,4]triazine-6-carbonitrile], the figures for the negative-log EC50 (pEC50) at F508del V470 CFTR and at CFTR were 7.38 and 7.55, respectively.
Consider `CCC(c1cnn(C(C)C)c1)c1c(C#N)c(-c2cnc(C(F)(F)F)nc2)c2c(N)ncnn12` (single isomer, unassigned) [Example 10, 4-amino-7-{1-[1-(propan-2-yl)-1H-pyrazol-4-yl]propyl}-5-[2-(trifluoromethyl)pyrimidin-5-yl]pyrrolo[2,1-f][1,2,4]triazine-6-carbonitrile], for which the figures for the pEC50 at F508del V470 CFTR and at CFTR were 7.02 and 7.32, respectively.
As for `CCC(c1cnn(C(C)C)c1)c1c(C#N)c(-c2cnc(C(F)(F)F)nc2)c2c(N)ncnn12` (single isomer, unassigned) [Example 11, 4-amino-7-{1-[1-(propan-2-yl)-1H-pyrazol-4-yl]propyl}-5-[2-(trifluoromethyl)pyrimidin-5-yl]pyrrolo[2,1-f][1,2,4]triazine-6-carbonitrile], the negative logarithm of the EC50 (pEC50) was 8.38 on F508del V470 CFTR and 8.16 on CFTR.
The matching figures for `CC(c1cnn(-c2ccccc2F)c1)c1c(C#N)c(-c2cnc(C(F)(F)F)nc2)c2c(N)ncnn12` (single isomer, unassigned) [Example 12, 4-amino-7-{1-[1-(2-fluorophenyl)-1H-pyrazol-4-yl]ethyl}-5-[2-(trifluoromethyl)pyrimidin-5-yl]pyrrolo[2,1-f][1,2,4]triazine-6-carbonitrile]: 7.90 and 8.40.
In the case of `CC(O)(c1cn(-c2ccccc2F)nn1)c1cc(-c2cnc(C(F)(F)F)nc2)c2c(N)ncnn12` (single isomer, unassigned) [Example 68, 1-{4-amino-5-[2-(trifluoromethyl)pyrimidin-5-yl]pyrrolo[2,1-f][1,2,4]triazin-7-yl}-1-[1-(2-fluorophenyl)-1H-1,2,3-triazol-4-yl]ethanol], on F508del V470 CFTR, the pEC50 was 5.64.
On to `CC(c1cnn(-c2ccccc2F)c1)c1c(C#N)c(-c2cnc(C(F)F)nc2)c2c(N)ncnn12` (single isomer, unassigned) [Example 96, 4-amino-5-[2-(difluoromethyl)pyrimidin-5-yl]-7-{1-[1-(2-fluorophenyl)-1H-pyrazol-4-yl]ethyl}pyrrolo[2,1-f][1,2,4]triazine-6-carbonitrile], for which the pEC50 on CFTR was 9.40.
As for `CC(c1cnn(-c2ccccc2F)c1)c1c(C#N)c(-c2cnc(C(F)F)nc2)c2c(N)ncnn12` (single isomer, unassigned) [Example 97, 4-amino-5-[2-(difluoromethyl)pyrimidin-5-yl]-7-{1-[1-(2-fluorophenyl)-1H-pyrazol-4-yl]ethyl}pyrrolo[2,1-f][1,2,4]triazine-6-carbonitrile], at CFTR, the pEC50 is 8.41.
For the molecule `CCC(c1cn(-c2ccccc2F)nn1)c1c(C#N)c(-c2cnc(C(F)(F)F)nc2)c2c(N)ncnn12` (stereo not shown) [Example 25, 4-amino-7-{1-[1-(2-fluorophenyl)-1H-1,2,3-triazol-4-yl]propyl}-5-[2-(trifluoromethyl)pyrimidin-5-yl]pyrrolo[2,1-f][1,2,4]triazine-6-carbonitrile], the pEC50 on CFTR was 8.10.

The record behind these values is patent US10131670B2, “Bicyclic heteroaryl derivatives as CFTR potentiators” (CYSTIC FIBROSIS FOUNDATION THERAPEUTICS, INC., priority 2016, dated 2018).
